Laboratory results taken from patent publication US8592174B2, “Peptidase substrates” (bioMérieux, S.A., priority 2009, dated 2013).

Legend:
Assay in all cases: pH variation detection on modified chromID Coli medium (Example 6)
Assay type in all cases: cell-based
Parameters in all cases: Coloration strength: key to the marks not given beside the values
Settings in all cases: 50 mg/l, 24 h 37° C.
[1] = tested on: Cedecea lapagei 05 04 130
Description: (§1) The media were incubated for 24 hours at 37° C., then the spots formed were examined visually.

[2] = tested on: Citrobacter braakii 05 06 109
Description: as §1

[3] = tested on: Citrobacter koseri 75 08 021
Description: as §1

E. coli 05 06 043 = tested on: E. coli 05 06 043
Description: as §1

E. coli 05 06 052 = tested on: E. coli 05 06 052
Description: as §1

E. coli 77 05 035 = tested on: E. coli 77 05 035
Description: as §1

E. coli 78 12 004 = tested on: E. coli 78 12 004
Description: as §1

[4] = tested on: Edwarsiella tarda 75 07 053
Description: as §1

[5] = tested on: Enterobacter cloacae 05 09 064
Description: as §1

[6] = tested on: Escherichia hermannii 04 03 161
Description: as §1

[7] = tested on: Klebsiella oxytoca 05 04 175
Description: as §1

[8] = tested on: Klebsiella pneumoniae ssp pneumoniae 73 08 012
Description: as §1

[9] = tested on: Kluyvera ascorbata 84 08 084
Description: as §1

[10] = tested on: Leclercia adecarboxylata 97 04 041
Description: as §1

[11] = tested on: Pantoea agglomerans 04 05 057
Description: as §1

[12] = tested on: Pectobacterium carotovorum 84 06 059
Description: as §1

[13] = tested on: Proteus mirabilis 04 05 048
Description: as §1

[14] = tested on: Proteus vulgaris 04 05 062
Description: as §1

[15] = tested on: Providencia rettgeri 88 05 064
Description: as §1

[16] = tested on: Salmonella ser. Enteritidis 94 06 001
Description: as §1

[17] = tested on: Salmonella ser. Typhimurium 81 12 010
Description: as §1

[18] = tested on: Serratia liquefaciens 05 04 117
Description: as §1

[19] = tested on: Shigella boydii 00 04 212; for Coloration strength: key: +++: good growth/high coloration strength; ++: medium growth/medium coloration strength; +: weak growth/weak coloration strength; −: no growth/no coloration; for Growth: key: +++: good growth/high coloration strength; ++: medium growth/medium coloration strength; +: weak growth/weak coloration strength; −: no growth/no coloration
Description: as §1

[20] = tested on: Shigella sonnei 92 11 060; for Coloration strength: key: +++: good growth/high coloration strength; ++: medium growth/medium coloration strength; +: weak growth/weak coloration strength; −: no growth/no coloration; for Growth: key: +++: good growth/high coloration strength; ++: medium growth/medium coloration strength; +: weak growth/weak coloration strength; −: no growth/no coloration
Description: as §1

Shigella spp 76 02 055 = tested on: Shigella spp 76 02 055
Description: as §1

[21] = tested on: Yersinia enterocolitica 05 04 143
Description: as §1

[22] = tested on: Yersinia enterocolitica ssp enterocolitica 92 11 061
Description: as §1

Compound: Nc1ccc(C=Cc2ccnc3ccccc23)cc1
- Color [1]: Orange
- Coloration strength [1]: ++
- Growth ([1]; control C: ++): ++
- Color [2]: Orange
- Coloration strength [2]: ++
- Growth ([2]; control C: ++): ++
- Color [3]: Orange
- Coloration strength [3]: ++
- Growth ([3]; control C: ++): ++
- Color (E. coli 05 06 043): Orange
- Coloration strength (E. coli 05 06 043): ++
- Growth (E. coli 05 06 043; control C: ++): ++
- Color (E. coli 05 06 052): Orange
- Coloration strength (E. coli 05 06 052): ++
- Growth (E. coli 05 06 052; control C: ++): ++
- Color (E. coli 77 05 035): Orange
- Coloration strength (E. coli 77 05 035): ++
- Growth (E. coli 77 05 035; control C: ++): ++
- Color (E. coli 78 12 004): Orange
- Coloration strength (E. coli 78 12 004): ++
- Growth (E. coli 78 12 004; control C: ++): ++
- Color [4]: Orange
- Coloration strength [4]: ++
- Growth ([4]; control C: ++): ++
- Color [5]: Orange
- Coloration strength [5]: ++
- Growth ([5]; control C: ++): ++
- Color [6]: Orange
- Coloration strength [6]: ++
- Growth ([6]; control C: ++): ++
- Color [7]: Orange
- Coloration strength [7]: ++
- Growth ([7]; control C: ++): ++
- Color [8]: Orange
- Coloration strength [8]: ++
- Growth ([8]; control C: ++): ++
- Color [9]: Orange
- Coloration strength [9]: ++
- Growth ([9]; control C: ++): ++
- Color [10]: Orange
- Coloration strength [10]: ++
- Growth ([10]; control C: ++): ++
- Color [11]: Orange
- Coloration strength [11]: ++
- Growth ([11]; control C: ++): ++
- Color [12]: Orange
- Coloration strength [12]: ++
- Growth ([12]; control C: ++): +
- Color [13]: Orange
- Coloration strength [13]: ++
- Growth ([13]; control C: ++): ++
- Color [14]: Orange
- Coloration strength [14]: ++
- Growth ([14]; control C: ++): ++
- Color [15]: Orange
- Coloration strength [15]: ++
- Growth ([15]; control C: ++): ++
- Color [16]: Orange
- Coloration strength [16]: ++
- Growth ([16]; control C: ++): ++
- Color [17]: Orange
- Coloration strength [17]: ++
- Growth ([17]; control C: ++): ++
- Color [18]: Orange
- Coloration strength [18]: ++
- Growth ([18]; control C: ++): ++
- Color [19]: Orange
- Coloration strength [19]: ++
- Growth ([19]; control C: ++): ++
- Color [20]: Orange
- Coloration strength [20]: ++
- Growth ([20]; control C: ++): ++
- Color (Shigella spp 76 02 055): Orange
- Coloration strength (Shigella spp 76 02 055): ++
- Growth (Shigella spp 76 02 055; control C: ++): ++
- Color [21]: Orange
- Coloration strength [21]: ++
- Growth ([21]; control C: ++): +
- Color [22]: Orange
- Coloration strength [22]: ++
- Growth ([22]; control C: ++): ++
